{"source": "patent US20130060023A1", "about": "“Compounds useful for treating neurodegenerative disorders” (Satori Pharmaceuticals, Inc., priority 2011, published 2013)", "type_in_all_cases": "cell-based", "conditions_in_all_cases": "Homo sapiens, 5 hours at 37° C., 1% DMSO", "key": {"[1]": {"tested_on": "Aβ-42", "assay": "Aβ-42 level in conditioned media of 2B7 cells, MSD 3-PLEX ELISA", "procedure": "(§1) Assays were conducted to determine the ability of a Compound of Formula I to modulate […], […], and Aβ-38. μELISA Plates: Human (6E10) Ab 3-PLEX ELISA kits were purchased from Meso Scale Discovery Labs, 9328 Gaither Road, Gaithersburg, Md. 20877 (Catalog Number […]-3). Plates with capture antibodies were blocked for 1-2 hours at room temperature with 150 μL of the manufactures blocking reagent. Conditioned Media: Cultured 2B7 cells in 96 well plate with 250 μL of media per well until confluent; Prepared serial dilutions of compounds in DMSO at 100× the final desired concentration; Washed wells with 2B7 cells 1× with 250 μL of media; Diluted DMSO stocks 1:100 into media: • Added 250 μL of media containing compounds (1% DMSO) to wells with 2B7 cells for 5 hours at 37° C. ELISA Sample Prep: Diluted conditioned media: 1 part media with 1% DMSO and 1 part blocking buffer; 150 μL of the 250 μL of conditioned media were used. Standard Curve Sample Prep: Prepared per manufacturer's protocol (see above). […] Final Wash and Readout: Washed wells 5× with MSD wash buffer; Added 150 μL 2×MSD read buffer; Read with MSD imager. […] Data Analysis: Aβ peptide levels for each peptide were calculated from the standard curve using the MSD software provided with the MSD 2400 Imager. Percent vehicle values for each compound dosage were then calculated and fit to a 4 parameter curve generating IC50 values."}, "[2]": {"tested_on": "Aβ-38", "assay": "Aβ-38 level in conditioned media of 2B7 cells, MSD 3-PLEX ELISA", "procedure": "as §1"}, "[3]": {"tested_on": "Aβ-40", "assay": "Aβ-40 level in conditioned media of 2B7 cells, MSD 3-PLEX ELISA", "procedure": "as §1"}}, "note": "Read-outs that look alike come from different tables or passages of the source."}
{"smiles": "CC(C)[C@@H](OC(=O)N1CCC1)[C@H]1C[C@@H](C)[C@H]2[C@H](O1)[C@H](O)[C@@]1(C)[C@@H]3CC[C@H]4C(C)(C)[C@@H](O[C@H]5CN([C@@H]6CCNC6=O)CCO5)CC[C@@]45C[C@@]35CC[C@]21C", "note": "[Compound I-1]", "values": [{"measurement": "IC50", "setting": "[1]; inflection of 4 parameter curve, read-out: Aβ 42 DR IC50 Inflection", "value": "> 5000", "unit": "nM"}, {"measurement": "IC50", "setting": "[1]; read-out: Aβ 42 IC50", "value": "100 to 500", "unit": "nM"}, {"measurement": "IC50", "setting": "[2]; inflection of 4 parameter curve, read-out: Aβ 38 DR IC50 Inflection", "value": "> 5000", "unit": "nM"}, {"measurement": "IC50", "setting": "[2]; read-out: Aβ 38 IC50", "value": "501 to 1000", "unit": "nM"}, {"measurement": "IC50", "setting": "[3]; inflection of 4 parameter curve, read-out: Aβ 40 DR IC50 Inflection", "value": "> 5000", "unit": "nM"}, {"measurement": "IC50", "setting": "[3]; read-out: Aβ 40 IC50", "value": "> 5000", "unit": "nM"}]}
